The results in this text go back to patent EP4678179A1, “PHARMACEUTICAL COMPOSITION CONTAINING ACTIVE SULFUR MOLECULE” (Tohoku University, priority 2023, dated 2024).

For one assay, the system named is Rag2-/- host mice. Put plainly: T cell transfer enteritis (IBD) model: naive CD4+ T cells transferred into Rag2-/- mice, GSSSG administered intraperitoneally. The assay is classed as in vivo. The source says:
CD4^+ T cells were magnetically sorted from splenocytes of young mice (from 8 to 12 weeks old). Then, naive CD4^+ T cells (CD3^+ CD4^+ CD25^- CD44^lo CD62L^hi or CD3^+ CD4^+ Foxp3-RFP^- CD44^lo CD62L^hi) were sorted using FACS AriaII (BD Bioscience) based on fluorescently labeled monoclonal antibodies or reporter fluorescent proteins. In experiments to confirm homeostatic maintenance proliferation, naive CD4^+ T cells were labeled with carboxyfluorescein succinimidyl ester (CFSE) (Thermo Fisher Scientific), and were injected into the tail veins of CD45.1 host mice irradiated with a sublethal dose (5.5 Gy), at 1 × 10^6 cells per mouse 1 day before transfer. In experiments to induce enteritis, wild-type or Cars2^+/- naive CD4^+ T cells were injected into the tail veins of Rag2^-/- mice at 3 × 10^5 cells per mouse. In experiments to evaluate the function of regulatory T cells, Cars2^+/+ naive CD4^+ T cells were co-transferred with regulatory T cells derived from Cars2^+/- Foxp3-RFP reporter mice (1 × 10^5 cells/mouse). In GSSSG administration experiments, GSSSG (400 nmol/mouse) was intraperitoneally administered to the Rag2^-/- host mice every day from the same day as the day when the naive CD4^+ T cells were transferred.
At the stage where from 3 to 4 weeks had elapsed after the transfer of the naive T cells, the large intestines of the Rag2^-/- host mice were collected and fixed with 10% formalin. After the fixed samples were embedded in paraffin, 5-µm-thick sections were cut out and subjected to hematoxylin-eosin staining (H & E) and immunostaining with a CD4 monoclonal antibody (mAb) (EPR19514). The histological inflammation score was classified into three groups with reference to a previous report (Biswas et al., Nat Commun 9, 1779 (2018)).
Therefore, using the same IBD model, wild-type and Cars2+/- naive CD4+ T cells were adoptively transferred to Rag2-/- mice, and the properties of the donor cells and the IBD pathological conditions of the host mice were observed over time. […] Since there was no significant difference in proportion of dead cells between the two groups (FIGS. 4F, 5C, and 5F), the reason for the increase in number of accumulated cytokine-producing Cars2+/- T cells is considered to be enhanced homeostatic maintenance proliferation of the donor cells.
To confirm whether CARS2 suppresses the proliferation of enteritis pathogenic T cells via active sulfur, GSSSG, which is a donor of an active sulfur molecule, was administered to Rag2-/- host mice, and as a result, the body weight loss of the individuals transplanted with Cars2+/- CD4+ T cells was suppressed, and the reduction in histological enteritis images was observed (FIGS. 8A to 8C).

For a further assay, the system named is HDM-treated mice. In words: HDM-induced mouse asthma model (type 2 airway inflammation), intraperitoneal GSSSG. It is filed as in vivo. The protocol:
Asthma model mice were created according to a previous report (Ishii et al., Scandinavian journal of immunology. 2018; 87 (3)). Specifically, as shown in the FIG. 5A, mice were intranasally administered with HDM extract (at the indicated doses in PBS) under isoflurane anesthesia to induce asthma.
Twenty four (24) hours after the last dose of HDM, the mice were anesthetized and sacrificed by exsanguination. The alveoli were washed three times with 500 µL of 10 mM PBS, and the bronchial alveolar lavage fluid (BALF) was collected. For 5 minutes, […], then the supernatant was stored for biochemical analysis, and the cellular pellet was resuspended in 500 µL of 10 mM PBS. The total number of cells was counted using a Scepter handheld automated cell counter (Millipore), followed by cytospin specimen preparation and staining with Diff-Quick (Sysmex) or Eosinostain-Torii (Torii Pharmaceutical).
Isolation of cells from mouse lung tissue and FCM were performed according to previous reports (Gomez et al., American journal of respiratory cell and molecular biology. 2015; 52 (3): 349-64., and Yamada et al., American journal of respiratory and critical care medicine. 2011; 183 (10): 1391-401.). For histological examination of lung inflammation, lung sections were stained with hematoxylin and eosin (HE). Lung inflammation was semi-quantified and evaluated according to a previous report.
It was investigated whether intraperitoneal administration of GSSSG in vivo suppresses an HDM-induced type 2 airway inflammation. […] Thus, GSSSG has therapeutic potential in CD4 T cell-mediated type 2 inflammatory diseases, including asthma, by organizing TCR signaling.

Another assay relates to human CD4+ T cells. Put plainly: Cell cycle analysis of human naive CD4+ T cells stimulated with CD3/CD28 in the presence or absence of GSSSG. The assay is classed as cell-based. The settings on record: naive CD4+ T cells from peripheral bloods of healthy individuals; CD3/CD28 stimulation; GSSSG 1 µM; 48 hours; FIG. 10E. The protocol:
Peripheral mononuclear blood cells were isolated using Vacutainer (BD Bioscience), and naive CD4^+ T cells (CD3^+ CD4^+ CD25^- CD45RO^- CD45RA^+) were purified from the isolated mononuclear cells using FACS AriaII (BD Bioscience). The purified naive CD4^+ T cells were seeded in a 96-well plate at 5 × 10^4 cells per well, and stimulated with Dynabeads™ Human T-Activator CD3/CD28 (Thermo Fischer Scientific) in an RPMI medium (10% FCS) in the presence or absence of GSSSG (1 µM) for 48 hours.
Finally, the involvement of active sulfur in the regulation of the proliferation of human CD4+ T cells was examined through in vitro cell culture. Specifically, naive CD4+ T cells purified from peripheral bloods of healthy individuals were stimulated with CD3/CD28 in the presence and absence of GSSSG to induce the proliferative response, and the cell cycle was analyzed 48 hours after the stimulation. […] Thus, it was shown that CARS2-dependent active sulfur metabolism also suppresses the cell cycle entry also in human CD4+ T cells and limits the proliferation of the same cells.

Consider `N[C@@H](CCC(=O)N[C@@H](CSSSC[C@H](NC(=O)CC[C@H](N)C(=O)O)C(=O)NCC(=O)O)C(=O)NCC(=O)O)C(=O)O` [GSSSG, glutathione trisulfide], for which the therapeutic effect result with Rag2-/- host mice (Rag2-/- host mice transfused with wild-type CD4+ T cells, GSSSG 400 nmol/mouse intraperitoneally every day, FIGS. 9A to 9C) is “no significant therapeutic effect”. Besides, in the assay with Rag2-/- host mice (Rag2-/- host mice transplanted with Cars2+/- CD4+ T cells, GSSSG 400 nmol/mouse intraperitoneally every day, FIG. 8A), the body weight loss entry is on record as “suppressed”. The histological enteritis images result in the assay on Rag2-/- host mice (Rag2-/- host mice transplanted with Cars2+/- CD4+ T cells, GSSSG 400 nmol/mouse intraperitoneally every day, large intestine, H & E and CD4 immunostaining, FIGS. 8B, 8C) is “reduction”. Further, in the assay with Rag2-/- host mice (figure legend of FIG. 8, administration of GSSSG to host mice), the “enteritis induced by Cars2+/- CD4+ T cells” value is “improved”. In the assay with HDM-treated mice (both Cars2+/- mice and WT mice, HDM-treated, 1 mM GSSSG intraperitoneal, BALF, FIG. 14E), the “accumulation of inflammatory cells, particularly eosinophils, in the airways” value was “significantly suppressed”. Besides, the lung inflammation result with HDM-treated mice (both HDM-treated Cars2+/- mice and HDM-treated WT mice, GSSSG treatment, HE-stained lung tissue, FIG. 14F) is “significantly reduced”. For the same molecule, the goblet cell hyperplasia entry with HDM-treated mice (both HDM-treated Cars2+/- mice and HDM-treated WT mice, GSSSG treatment, PAS-stained lung tissue, FIG. 14G) was “significantly reduced”. Also, the “cell cycle entry of the naive CD4+ T cells” value in the assay with human CD4+ T cells is “significantly suppressed”.
